Values of other authors in patent publication US12447174B2, “Microdaily EMF protects against oxidative and inflammatory damage, and acute and late adverse effects of EMF radiation” (priority 2021, dated 2025).
“Also recorded” adds a separate entry of the source.

Key:
[1] = test system: microglia cells in culture
[2] = test system: hippocampus of rats; details: prenatal exposure to 900 MHz EMF radiation
[3] = test system: porcine blood platelets; details: 1 KHz, 220 V/m, 30 and 60 minutes
[4] = test system: patients with Alzheimer's disease
[5] = test system: heart disease; details: humans
[6] = test system: Human embryonic kidney cells (HEK293); details: HEK293, 2.4 GHz for 1 h, treatment before exposure
[7] = test system: male heavy smokers; details: beta-carotene alone
[8] = test system: rats; details: EMF radiation emitted from mobile phones, supplementation
[9] = test system: N9 microglia cells; details: N9 microglia cells in culture
[10] = test system: rats exposed to 900 MHz radiation; details: compared to EMF irradiated animals not receiving luteolin
[11] = test system: kidney of rats; details: 900 MHz
[12] = test system: hippocampus and cerebellum of rats; details: RF-EMF 900 MHz 60 min/day for 21 days
[13] = test system: workers chronically exposed to ELF-EMF radiation from high voltage electricity

COc1cc(/C=C/C(=O)CC(=O)/C=C/c2ccc(O)c(OC)c2)ccc1O [Curcumin]
EMF-induced elevation of pro-inflammatory cytokines [1]: prevented | EMF-induced reduced phagocytic activity [1]: prevented

omega-3-fatty acids
EMF radiation-induced neuronal damage in the hippocampus [2]: prevented EMF radiation-induced neuronal damage

vitamin A
EMF-induced increase in malondialdehyde (MDA) levels [3]: significantly attenuated such changes; also recorded: significantly attenuated this damage

Vitamin E
rate of decline in cognitive function ([4]; early phase of Alzheimer's disease): reduced the rate of decline in cognitive function | treatment effect in Alzheimer's disease ([4]; patients with Alzheimer's disease): ineffective | effect in heart disease on primary and most secondary outcomes [5]: ineffective

[Se] [selenium]
EMF radiation-induced biochemical changes (MDA, SOD, glutathione peroxidase, apoptosis, caspase-3, Bcl2) [6]: reduced such EMF radiation-induced biochemical changes

CC1=C(/C=C/C(C)=C/C=C/C(C)=C/C=C/C=C(C)/C=C/C=C(C)/C=C/C2=C(C)CCCC2(C)C)C(C)(C)CCC1 [beta-carotene]
risk of lung cancer [7]: increased the risk of lung cancer

vitamin D
EMF radiation impaired immune function [8]: mitigated

CC(C)(C)c1nc2c3cc[nH]c(=O)c3c3cc(F)ccc3c2[nH]1 [pyridone 6]
EMF radiation induced inflammatory responses [9]: suppressed EMF radiation induced inflammatory responses

O=c1cc(-c2ccc(O)c(O)c2)oc2cc(O)cc(O)c12 [luteolin]
numbers of Leydig cells, primary spermatocytes, and spermatids [10]: enhanced the number of these cells

COc1ccc2[nH]cc(CCNC(C)=O)c2c1 [melatonin]
EMF radiation induced oxidative damage in the kidney [11]: prevented | EMF radiation-induced neuronal damage in the hippocampus [2]: prevented EMF radiation-induced neuronal damage

Nc1nc2ncc(CNc3ccc(C(=O)N[C@@H](CCC(=O)O)C(=O)O)cc3)nc2c(=O)[nH]1 [folic acid]
reduction in pyramidal and granular cells in hippocampus and dentate gyres and Purkinje cell number in cerebellum [12]: decreased these changes

Oc1ccc(C=Cc2cc(O)cc(O)c2)cc1 [resveratrol]
increased oxidative stress (damage) from ELF-EMF radiation [13]: reduced this damage
